Tested on: IFNγ response of splenocytes
Experiment: IFNγ ELISpot assay on splenocytes of vaccinated Balb/c mice
Type: in vivo
Details: splenocytes of mice vaccinated with Ancer-selected CT26 Neoantigen Peptides+Poly-ICLC, stimulated overnight; positive = >50 SFC/million over background and stimulation index >2-fold
From the text: Balb/c mice were separated into three groups: A) Vehicle control; B) Ancer™-selected CT26 Neoantigen Peptides+adjuvant; C) Ancer™-selected CT26 Neoantigen Peptides+JANUSMATRIX™ MHC class II selected peptides+adjuvant. All vaccines were formulated with the addition of the adjuvant Poly-ICLC. Poly-ICLC, also known as Hiltonol, is a synthetic double-stranded RNA (dsRNA) agonist for pattern recognition receptors (PRRs), and TLR3 agonist. Groups A, B, and C received an initial vaccination with subsequent boosts of vaccine at 2- and 4-weeks post initial vaccination. All mice are sacrificed at 7-10 days after the final boost and spleens were harvested for splenocyte isolation and IFNγ ELISpot assay.
Group A: 50 ug Poly-ICLC in 200 uL
Group B: 20 Ancer™-selected CT26 Neoantigen Peptides at 5 ug/peptide, 100 ug total peptide, 50 ug Poly-ICLC, 200 uL […]
Isolated splenocytes were plated and stimulated with Ancer™-selected CT26 Neoantigen Peptides (CT26 pool), JANUSMATRIX™ selected peptides (CT26-Treg_pool), class I peptide pool, as well as individual Ancer™-selected CT26 Neoantigen peptide CT26-1 (CT26_peptide 1) and CT26-20 ([…]). Plates were incubated overnight and then read. […] Statistical significance was determined by Student's T-test; per mouse—antigen vs. no antigen stimulus, as well as group comparisons (p<0.05).

For Ac-LQARLTSYETLK-NH2 [CT26-1], the “epitope-specific IFNγ response on recall stimulation (immunogenic)” value was “significant epitope-specific IFNγ response”.

Reference: patent US20220125900A1, “NEOANTIGENS IN CANCER” (priority 2019, published 2022)
